The nature of the series: Dissolution of dye powder in CP/DMSO 80/20 mixture. It is filed as physicochemical. The conditions noted are these: stirred 24 hours at room temperature.

On to `CC(=O)OCCN(CCC#N)c1ccc(N=Nc2nc3ccc([N+](=O)[O-])cc3s2)cc1` [Disperse Red 177, 2-((2-cyanoethyl)(4-((6-nitrobenzothiazol-2-yl)azo)phenyl)amino)ethyl acetate], for which the “Dissolution in CP/DMSO 80/20 mixture” value (2.5 grams powder in 22.5 grams CP/DMSO 80/20) is given as “completely dissolved”.

For `CCN(CCO)c1ccc(N=Nc2ccc([N+](=O)[O-])cc2)cc1` [Disperse Red 1, N-Ethyl-N-(2-hydroxyethyl)-4-(4-nitrophenylazo)aniline], where the note is “2.5 gram powder in 22.5 grams CP/DMSO 80/20, followed by 4 hours at 40° C.”, the “Dissolution in CP/DMSO 80/20 mixture” value is “completely dissolved”.

(Values after patent publication US11332620B2, “Solution comprising a dye” (NOURYON CHEMICALS INTERNATIONAL B.V., priority 2018, dated 2022).)
